The subject of data set [1] is radiation-induced oral mucositis. Description: Efficacy study, radiation-induced oral mucositis, 20 Gy single fraction (Example F-2). The data set is classed as in vivo, C57BL/6 mice. The procedure: Female C57BL/6 mice (12 weeks old) purchased from Janvier CERT (Le Genest St. Isle, France) were used after an acclimation time of 7 days. They had free access to food (SAFE reference R0340, Augy, France) and water. They were housed on a 12 hours light/dark cycle at a room temperature of 22° C.±2° C. and a relative humidity of 55%±15%.
Irradiation was carried out locally with a X-ray Varian NDI 226 tube (200 kV, 15 mA, 0.2 mm Cu) at a dose rate of 1.33 Gy/min, the rest of the body being protected by a lead shield. Mice were euthanized when body weight loss exceeded 20% of the initial weight for more than 24 hours or in case of severe clinical signs (ethical endpoints). […]
Two parameters were monitored: the body weight and the Parkins score. This represents an arbitrary score system devised by Parkins and co-workers with separate scores for edema and erythema evaluated by macroscopic observation (Parkins, C. S., Fowler, J. F., and Yu, S. (1983). A murine model of lip epidermal/mucosal reactions to X-irradiation. Radiotherapy and oncology: Journal of the European Society for Therapeutic Radiology and Oncology 1, 159-165). […]
The Parkins score is calculated as follows: “Parkins score”=edema score+erythema score.
A single dose irradiation was delivered to the snout of mice. This induced a mucosal/epidermal lip reaction that was monitored through macroscopic observation and scoring. […]

The test system is the same in data set [2]. In words: Third efficacy study, radiation-induced oral mucositis, four fractions of 8 Gy (Example F-6). In kind it is in vivo, mice. An excerpt: Four fractions of 8 Gy were delivered for four consecutive days (everyday from day 0 to day 3; day 0 corresponding to the first day of treatment) to the snout. The fractionation scheme of four fractions of 8 Gy was chosen, because it is biologically equivalent to 1 fraction of 18 Gy (Biologically Effective Dose: BED 120 Gy). […] Thus, the compound was applied 4 times for four consecutive days. For each day, a similar experimental procedure as for in example F-2 was used. […] The same experimental procedure was repeated for 4 consecutive days.

Data set [3] shares this test system. In words: Second efficacy study, radiation-induced oral mucositis, 18 Gy single fraction (Example F-4). In kind it is in vivo, mice. The method, then: The experiment was conducted with gels containing 20, 40 or 80 mg/ml Amifostine (corresponding to 12.5, 25 or 50 mg/ml amifostine thiol respectively). A lower dose of irradiation (a single fraction irradiation of 18 Gy) was delivered to the snout, so that all the mice could be kept alive until the end of the experiment. Different amounts of compound were administered to mice (1; 2 or 4 mg per mouse).
The same experimental procedure as for in example F-2 was used. Briefly, mice were anesthetized, Amifostine or Amifostine thiol was delivered 10 minutes later or not depending on the group (gel application or intravenous injection), mice were irradiated dorsally at an 18 Gy dose 30 minutes after the administration of Amifostine or Amifostine thiol and awakened 20 minutes later.
[…] were allocated to 6 groups: • Control (n=6 mice); • Placebo gel (n=6 mice); • Amifostine thiol 20 mg/ml gel (1 mg amifostine/mouse, n=6 mice); • Amifostine thiol 40 mg/ml gel (2 mg amifostine/mouse, n=6 mice); • Amifostine thiol 80 mg/ml gel (4 mg amifostine/mouse, n=6 mice); and • Amifostine intravenous (IV) (20 mg/ml) (4 mg amifostine/mouse, n=5 mice).
For each group, the development of oral mucositis was evaluated on 5 or 6 mice depending on the group. An 18 Gy dose irradiation induced a less severe phenotype than the 20 Gy dose irradiation that was used in the first efficacy experiment.

Data set [4] in a line: Stability of lyophilized powder of aminothiol (WR-1065) at 25° C./60% RH under argon. In kind it is physicochemical. The method, then:
A stability study is performed to compare stability of: • WR-1065 obtained by conversion of amifostine (350 mg/ml or 500 mg/ml) in acidic condition (respectively HCl 1M or HCl 4M), diluted in water or in P407/P188 mixture and then lyophilized (based on examples described in parts A & B), and • WR-1065 hydrochloride salt crystalline powder.
Stability is assessed by analysis of samples stored under argon atmosphere at 25° C./60% RH. The aim of argon is to provide two materials under same stability condition.

[5] abbreviates: T1m-25° C./60% RH, under argon atm.
The mark [6] stands for this setting: T15d-25° C./60% RH, under argon atm.

Where only a bound is given, the exact number is not on record here.

In the case of `NCCCNCCSP(=O)(O)O` [Amifostine IV, Amifostine], the “effect on development and intensity of mucositis (Parkins score), in words” value in data set [1] (20 Gy single fraction to snout, 4 mg amifostine/mouse 30 minutes before irradiation, thiol gel = Gel n°1, Amifostine gel = Gel n°2) is reported as “mucosal reaction of moderate intensity”. Further, the “day after irradiation at which edema and erythema completely disappeared” value in data set [1] (20 Gy single fraction, 4 mg amifostine/mouse IV) worked out at 20 days. Moreover, the results for the “day of acute peak of mucosal reaction” value in data set [2] (IV 2 mg amifostine/mouse) and in data set [3] (IV 4 mg amifostine/mouse) were ~15 days and 12 days, respectively. Further, the “Parkins score at the peak of mucosal reaction” value is 2.6 in data set [2] (day 0 to day 3, 2 mg amifostine per mouse before each fraction, thiol gel = Gel n°9) and 2.2 in data set [3] (gels 1, 2 or 4 mg amifostine/mouse, IV 4 mg/mouse, 30 minutes before irradiation). The “effect on mucositis peak and healing period, in words” value in data set [3] is “healing period was nearly absent”.
Turning to `NCCCNCCS` [WR-1065•2HCl native, 2-[(3-aminopropyl)amino]ethanethiol], in data set [4] (T0, under argon atm.), the Amifostine worked out at 0%, the Aminothiol was 99.7%, the Disulfides was determined as 0.3% and the Unknow result was “<LOQ”. In data set [4] (setting [5]), the Amifostine turned out to be 0%, the Aminothiol was 99.3%, the Disulfides was 0.5% and the Unknow stood at 0.2%. Besides, in data set [4] (setting [6]), the Amifostine is 0%, the Aminothiol was 99.6%, the Disulfides was found to be 0.4% and the Unknow entry is given as “<LOQ”.

These data come from patent US11021442B2, “Process for the preparation of freeze-dried 2-[(3-aminopropyl)amino] ethanethiol formulation” (CLEVEXEL PHARMA, priority 2016, dated 2021).
